Among the test systems are OVCAR-5; M14; HCC 2998; A549; OVCAR-8; U-251; CCRF-CEM; SK-OV-3; SF-295; SW-620; NCI-H522; NCI-H23; HL-60; SF-268; HOP-92.
What all share (assay): NCI-60 cell line screen, 48 h

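Following 48 hours of exposure in 96-well plates, responses at five concentrations were used to interpolate endpoints linearly. Here, GI50 denotes the concentration required for 50% inhibition of growth.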 The source made the active and inactive calls. Rule as the data show it: active = GI50 up to about 1.1 µM and inactive = higher.

In the case of `[Zn+2][N+]12CCN3CCN4CCN(CC1)[PH]432` (configuration not stated), the GI50 with OVCAR-5, in the assay with M14, with HCC 2998, in the assay with A549, in the assay on OVCAR-8 and in the assay with U-251 was > 100 µM (inactive) in each case. Further, the GI50 with CCRF-CEM, in the assay with SK-OV-3, with SF-295, with SW-620, in the assay on NCI-H522 and in the assay with NCI-H23 was > 100 µM (inactive) in each case. Further, the GI50 with HL-60 is > 100 µM (inactive).
As to `CN(C)C(c1ccccc1)C(O)c1ccccc1` (configuration not stated), the GI50 in the assay with M14, in the assay with SF-268, in the assay on HCC 2998, in the assay with A549, with U-251 and in the assay with CCRF-CEM was > 100 µM (inactive) each time. Besides, the GI50 in the assay with SK-OV-3, with SF-295, in the assay with SW-620, in the assay on NCI-H522, in the assay with NCI-H23 and in the assay with HL-60 was > 100 µM (inactive) throughout.
As to `COC(=O)/C(=N\NC(N)=O)C(C(=O)C=C(C)C)C(=O)C(=O)Nc1ccc(Cl)c(Cl)c1` (configuration not stated), the GI50 in the assay with OVCAR-5, in the assay with M14, in the assay on SF-268, in the assay on HCC 2998, in the assay with A549 and in the assay with OVCAR-8 was > 100 µM (inactive) each time. The GI50 in the assay on U-251, in the assay with CCRF-CEM, in the assay with SK-OV-3, in the assay with SF-295, in the assay on SW-620 and in the assay on NCI-H522 was > 100 µM (inactive) throughout. In addition, the GI50 with NCI-H23 and in the assay on HL-60 was > 100 µM (inactive) each time.
Turning to `CCOC(=O)C(=O)Nc1c(C)cccc1C(C)C`, the GI50 in the assay on OVCAR-5, in the assay with HOP-92, in the assay with M14, in the assay with SF-268, in the assay on A549 and in the assay with OVCAR-8 was > 100 µM (inactive) in each case. Besides, the GI50 in the assay with U-251, in the assay on CCRF-CEM, in the assay with SK-OV-3, in the assay on SF-295, with SW-620 and in the assay with NCI-H522 was > 100 µM (inactive) each time. The GI50 in the assay on NCI-H23 and in the assay on HL-60 was > 100 µM (inactive) throughout.
For `CCCCCC(=O)OCCOCCOCCOCCOCCOCc1ccccc1`, the GI50 in the assay on OVCAR-5, in the assay with HOP-92, in the assay on SF-268, in the assay with A549, with OVCAR-8 and with U-251 was > 100 µM (inactive) in each case. The GI50 with SF-295, in the assay with SW-620 and with NCI-H23 was > 100 µM (inactive) throughout.
Turning to `c1ccc2c(c1)Sc1ccccc1N2C1CN2CCC1CC2` (configuration not stated), the GI50 in the assay with OVCAR-5 was > 10 µM (inactive); in the assay with SF-268, 16.4 µM (inactive); in the assay with HCC 2998 it was 14.5 µM (inactive); in the assay on A549, 16.7 µM (inactive); in the assay with OVCAR-8 it was 16.4 µM (inactive); in the assay on U-251 it was 15.6 µM (inactive). Further, the GI50 in the assay on CCRF-CEM was 16.5 µM (inactive); in the assay on SK-OV-3 it was 19.5 µM (inactive); in the assay on SF-295, 15.3 µM (inactive); with SW-620, 16.4 µM (inactive); in the assay with NCI-H522, 18.8 µM (inactive); in the assay on NCI-H23, 24.5 µM (inactive). The GI50 in the assay with HL-60 is 14.9 µM (inactive).
As for `COC(=O)/C(=N/NC(=O)C[N+](C)(C)C)C(C(=O)OC)C(=O)C(=O)Nc1ccc(F)cc1` (configuration not stated), the GI50 in the assay on OVCAR-5, in the assay with M14, in the assay on SF-268, in the assay with HCC 2998, in the assay on A549 and with U-251 was > 100 µM (inactive) throughout. The GI50 in the assay with CCRF-CEM, in the assay on SK-OV-3, in the assay on SF-295, in the assay with SW-620, in the assay on NCI-H522 and in the assay on NCI-H23 was > 100 µM (inactive) in each case. In addition, in the assay on HL-60, the GI50 is > 100 µM (inactive).
Consider `CSc1nc(-c2ccccc2)nc(N2CCOCC2)[s+]1`, for which the GI50 in the assay on OVCAR-5, with M14, in the assay on SF-268, in the assay on HCC 2998, in the assay with A549 and with OVCAR-8 was > 100 µM (inactive) throughout. Further, the GI50 in the assay on U-251 is 92.7 µM (inactive); with CCRF-CEM it was 22.3 µM (inactive); in the assay with SK-OV-3 it was > 100 µM (inactive); in the assay on SW-620, > 100 µM (inactive); with NCI-H522 it was 32.8 µM (inactive); in the assay on NCI-H23 it was > 100 µM (inactive). Further, the GI50 with HL-60 is 42.8 µM (inactive).
Consider `COc1ccc(C(C#N)NNC(=O)Cc2ccccc2)cc1OC` (configuration not stated), for which the GI50 with OVCAR-5, with HOP-92, in the assay on M14, with SF-268, in the assay with A549 and in the assay on OVCAR-8 was > 100 µM (inactive) each time. Further, the GI50 in the assay with U-251, in the assay on CCRF-CEM, in the assay on SK-OV-3, with SF-295, with SW-620 and in the assay on NCI-H522 was > 100 µM (inactive) throughout. In addition, the GI50 in the assay on NCI-H23 and in the assay with HL-60 was > 100 µM (inactive) each time.
Take `Cc1cc(Cl)ccc1NC(=O)CCCC(=O)C1CCC/C1=N\NC(=O)CC#N` (configuration not stated): the GI50 in the assay on OVCAR-5, in the assay with HOP-92, in the assay on M14, in the assay with SF-268, in the assay on A549 and with OVCAR-8 was > 100 µM (inactive) throughout. Moreover, the GI50 with U-251, with CCRF-CEM, in the assay with SK-OV-3, in the assay with SF-295, in the assay on SW-620 and with NCI-H522 was > 100 µM (inactive) each time. Further, the GI50 in the assay with NCI-H23 and in the assay on HL-60 was > 100 µM (inactive) each time.
Consider `Cc1cc2c(c(C(=O)O)c1C)-c1cccc(Cl)c1C2=O`, for which the GI50 in the assay on OVCAR-5, in the assay on M14, with SF-268, in the assay with HCC 2998, with A549 and with OVCAR-8 was > 100 µM (inactive) throughout. Besides, the GI50 with U-251, in the assay on CCRF-CEM, in the assay on SK-OV-3, in the assay with SF-295, in the assay with SW-620 and with NCI-H522 was > 100 µM (inactive) throughout. In the assay on NCI-H23, the GI50 is > 100 µM (inactive).
Regarding `CCN(CC)c1ccc(/N=C2/C=CC(=C(C#N)C#N)c3ccccc32)c(C)c1`, the GI50 in the assay with HOP-92 is 0.324 µM (active); with M14, 1.48 µM (inactive); with A549 it was 2.18 µM (inactive); with OVCAR-8 it was 2.23 µM (inactive); in the assay with U-251, 1.56 µM (inactive); with CCRF-CEM it was 1.18 µM (inactive). The GI50 in the assay on SK-OV-3 is 3.83 µM (inactive); in the assay on SF-295, 2.28 µM (inactive); in the assay on SW-620 it was 1.58 µM (inactive); in the assay on NCI-H23 it was 1.58 µM (inactive); with HL-60, 1.26 µM (inactive).
With `COc1ccccc1NC(=O)CC(=O)NNCC(=O)Nc1nnc(-c2ccccc2)o1`, the GI50 with OVCAR-5, with M14, in the assay on SF-268, in the assay with HCC 2998, in the assay with A549 and in the assay with OVCAR-8 was > 100 µM (inactive) in each case. Further, the GI50 with U-251, with SK-OV-3, in the assay with SF-295, in the assay on SW-620, in the assay on NCI-H522 and in the assay with NCI-H23 was > 100 µM (inactive) in each case.
Regarding `C=CCN(N=O)C(=O)N(CCCC(NC(C)=O)C(=O)NCc1ccccc1)Cc1ccccc1` (configuration not stated), the GI50 was > 100 µM (inactive) in the assay on OVCAR-5; 38.4 µM (inactive) with M14; 62.2 µM (inactive) with SF-268; 61.9 µM (inactive) in the assay on A549; 67.3 µM (inactive) in the assay on OVCAR-8; 78.7 µM (inactive) with U-251. Also, the GI50 is 28.2 µM (inactive) in the assay with CCRF-CEM; > 100 µM (inactive) with SK-OV-3; 38.5 µM (inactive) in the assay with SF-295; 61.4 µM (inactive) in the assay on SW-620; 21.4 µM (inactive) in the assay with NCI-H522; > 100 µM (inactive) in the assay with NCI-H23. In addition, in the assay with HL-60, the GI50 is 19.6 µM (inactive).
`Cc1ccccc1NC(=O)Cc1nc2ccccc2s1`: the GI50 in the assay with OVCAR-5 was 21.9 µM (inactive); in the assay with M14, 12.6 µM (inactive); in the assay with SF-268 it was 17 µM (inactive); in the assay with HCC 2998, 34 µM (inactive); in the assay on A549 it was 16.6 µM (inactive); in the assay on OVCAR-8, 17.7 µM (inactive). The GI50 in the assay with U-251 is 11.8 µM (inactive); in the assay on CCRF-CEM, 9.51 µM (inactive); in the assay with SK-OV-3, 24.4 µM (inactive); in the assay on SF-295, 15.8 µM (inactive); in the assay with SW-620 it was 19.8 µM (inactive); in the assay on NCI-H522, 15.3 µM (inactive). Further, the GI50 is 14.7 µM (inactive) with NCI-H23 and 9.44 µM (inactive) with HL-60.

Source of the values: ChEMBL document CHEMBL1201862, “PubChem BioAssay data set” (2004).
